Test results: ChEMBL document CHEMBL1201862, “PubChem BioAssay data set” (2004)
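Five compound concentrations were applied to cells in 96-well plates for 48 hours; endpoints were derived by simple linear interpolation of the resulting dose-response curve. GI50 marks 50% less growth.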 The source made the active and inactive calls. Rule as the data show it: active = GI50 up to about 1.1 µM and inactive = higher.

Experiments:
Assay in all cases: growth of human tumour cells (NCI), 48 h
[1] = system: 786-0
[2] = system: ACHN
[3] = system: CAKI-1
[4] = system: CCRF-CEM
[5] = system: COLO 205
[6] = system: HCC 2998
[7] = system: HCT-116
[8] = system: HOP-62
[9] = system: K562
[10] = system: M14
[11] = system: MCF7
[12] = system: NCI-H226
[13] = system: OVCAR-3
[14] = system: OVCAR-4
[15] = system: SF-268
[16] = system: SF-295
[17] = system: SK-OV-3
[18] = system: SNB-19
[19] = system: UACC-62
[20] = system: UO-31

Measured: GI50

C/C(=N\O)C1CC(CC(=O)O)C1(C)C (stereo not given)
inactive: [1] > 100 µM | [2] > 100 µM | [3] > 100 µM | [4] > 100 µM | [5] > 100 µM | [6] 90.2 µM | [7] > 100 µM | [8] > 100 µM | [9] > 100 µM | [10] > 100 µM | [11] > 100 µM | [12] > 100 µM | [13] 10.2 µM | [14] > 100 µM | [15] > 100 µM | [16] > 100 µM | [17] > 100 µM | [18] > 100 µM | [19] > 100 µM | [20] > 100 µM
